{"source": "patent US20120022113A1", "about": "“METHODS FOR S[…] T[…] ACCUMULATION AND PREVENTING HYPERCYTOKINEMIA” (priority 2009, published 2012)", "key": {"[1]": {"tested_on": "influenza virus in madin-darby canine kidney (MDCK) cells", "test": "Virus replication in MDCK cells", "conditions": "up to 1 μg/ml, compared to PBS"}, "[2]": {"tested_on": "H1N1 A/Puerto Rico/8/34 (PR8) influenza A virus", "parameters": "species or system B6 mice", "conditions": "mouse, in vivo"}}}
{"smiles": "CCc1ccc(CCOc2ccc(CC3SC(=O)NC3=O)cc2)nc1", "note": "(centres unmarked) [pioglitazone]", "values": [{"measurement": "inhibition of virus replication in MDCK cells", "setting": "[1]", "value": "did not inhibit"}, {"measurement": "mortality", "setting": "[2]", "value": 50, "unit": "%"}]}
